Laboratory results from US5278174A, “Sigma binding site agents” (priority 1991, dated 1994).
“Also recorded” adds a separate entry of the source. Structures can show the parent of a compound that is named as a salt. Where two headings read alike, the source gives them in different places.

Tests used:
D2 [1] = target: T1, D2 (Rattus norvegicus, UniProt P61169); assay: Dopamine receptor binding, [3H]sulpiride; conditions: 3 nM [3H]sulpiride; rat striata; 60 minutes; read-out: Receptor Potency D2 (Ki, nMol)
T1 construct: Rat striata were homogenized; from tissue; host or cells: rat striatum membranes
Method: Dopamine receptor binding was determined using [^3 H] sulpiride. Rat striata were homogenized in 20 volumes of ice-cold 50 mM Tris-HCl (pH 7.5), and the resulting homogenate was centrifuged at 48,000 × g for 10 minutes. The resulting pellet was resuspended in the original volume of 50 mM Tris HCl and centrifuged as previously described. […] The filters were then washed 3 × with 5 mL of 50 mM Tris-HCl containing 100 mM NaCl, and filter bound radioactivity was quantified using liquid scintillation spectrometry.

sigma sites [2] = assay: Sigma receptor binding assay, [3H]DTG; conditions: 5 nM [3H]DTG; guinea pig whole brain; room temperature, 45 minutes; read-out: Receptor Potency Sigma DTG (IC50, nMol)
Method: (§1) Two selective sigma receptor ligands, [^3 H](+)-3-[3-hydroxyphenyl]-N-(1 propyl)piperidine [(+)-3-PPP] and [^3 H] Ditolylguanidine (DTG), were used to label sigma sites in brain tissue.
(§2) The tissue preparation and assay conditions employed when using either of these ligands were essentially the same. Frozen whole guinea pig brains (obtained from Pel-Freez, Rogers, Ariz.) were homogenized in 10 volumes of ice-cold 0.32M sucrose. The resulting pellet was resuspended in 10 volumes of ice-cold 50 mM Tris-HCl (pH 7.4), incubated at 37 ° C. for 30 minutes, and centrifuged at 22,000 × g for 20 minutes. The final tissue suspension was made in 50 mM Tris-HCl (pH 7.4) to a concentration of 20 mg original wet weight/mL. 800 μL of tissue suspension was added to tubes containing 5 nM [^3 H] DTG or 4 nM [^3 H] […] The final assay volume was 1 mL. The assay tubes were gently vortexed, and the binding reaction was carried out for 45 minutes at room temperature. The reaction was terminated by rapid filtration over Whatman GF/B glass fiber filters, which were then rinsed 3x with 5 mL of 50 mM Tris-HCl. Filter bound radioactivity was quantified using liquid scintillation spectrometry.

[3] = Reversal of Amphetamine-Induced Hyperlocomotion; type: in vivo; conditions: Mus musculus, ip, read-out: Induced Locomotion Amphetamine (minimally effective dose, MED)
Source text: Opto-varimex locomotor monitors (Columbus Instruments, Columbus, Ohio) were used to assess locomotor activity. The monitors consist of a 37×37 cm square plexiglass open field surrounded by an outer enclosure housing a 15×15 array of infrared photobeams. Placement of the mouse in the open field interrupts one or more beams. Movement is detected by successive interruption of more than one beam (setting: box size - 1). The monitors were placed on separate shelves in a dark test room. An IBM compatible computer (Compaq) monitored beam interruptions and calculated indices of locomotor activity (distance travelled, time ambulating) and stereotype behavior (number of small movements, time in stereotypy or small movements). Because the dose of amphetamine in these studies was too low to produce selective increases in stereotyped behavior, distance travelled was the primary dependent variable.

[4] = cited from earlier work
[5] = Induction of haloperidol-like catalepsy; type: in vivo, mouse; conditions: for TD50 at 0.5 h: mouse, in vivo
Source text: […]. At the time of the test the front paws of the mouse were placed on a 6 mm diameter rod which was mounted between the side walls of the apparatus, 39 mm above the floor. Gentle pressure was applied from the forefinger to immobilize the animal, with its back in a slightly arched (concave) position. The experimenter then released the mouse and recorded the latency to recover normal posture, as defined by return of at least one forepaw to the floor or placement of one hindlimb on the bar. […] TD50 values for lead compounds and reference compounds were confirmed in side-by-side studies by an experimenter blind to treatment conditions.

[6] = Reversal of Phencyclidine-Induced Hyperlocomotion; type: in vivo, mouse; conditions: for minimal effective dose: Mus musculus, read-out: Induced Locomotion PCP (minimally effective dose, MED)
Source text: Opto-varimex locomotor monitors (Columbus Instruments, Columbus, Ohio) were used to assess locomotor activity. The monitors consist of a 37×37 cm square plexiglass open field surrounded by an outer enclosure housing a 15×15 array of infrared photobeams. Placement of the mouse in the open field interrupts one or more beams. Movement is detected by successive interruption of more than one beam (setting: box size - 1). The monitors were placed on separate shelves in a dark test room. An IBM compatible computer (Compaq) monitored beam interruptions and calculated indices of locomotor activity (distance travelled, time ambulating) and stereotype behavior (number of small movements, time in stereotypy or small movements).
Male CFl mice (25°-30 g) were obtained from Harlan Sprague Dawley (Indianapolis, (N) and group-housed with free access to food and water for at least four days prior to testing. All tests took place during the light period of a 12:12 hour light-dark cycle. Each daily test consisted of one group of mice receiving a vehicle injection and an injection of amphetamine as the agonist. One group received two vehicle injections, and one or more groups received test compound plus amphetamine. Test compounds or the appropriate vehicles were administered 20 minutes prior to the locomotor test in studies using an intraperitoneal (i.p.) route of administration with mice, 30 minutes prior to test session for studies using an i.p. route of administration to rats, 45 minutes prior to the test session for studies using an oral (p.o.) route of administration with mice and 55 minutes prior to the locomotor test for studies using a p.o. route of administration to rats.
The procedure and data analysis were identical to that reported above for reversal of amphetamine hyperlocomotion with the exception that 3 mg/kg phencyclidine was injected in place of amphetamine 10 minutes prior to the test session.

sigma sites [7] = target: T2, sigma sites (Cavia porcellus, UniProt Q60492); assay: Sigma receptor binding assay, [3H](+)-3-PPP; conditions: 4 nM [3H](+)-3-PPP; guinea pig whole brain; room temperature, 45 minutes; read-out: Receptor Potency Sigma PPP (IC50, nMol)
T2 construct: Frozen whole guinea pig brains; tissue Pel-Freez, Rogers, Ariz; host or cells: whole guinea pig brain membranes
Method: as §1, §2

sigma binding sites = conditions: background statement; cited from earlier work
[8] = background statement; SK&F 10047, PCP, amphetamine; cited from earlier work
D2 [9] = conditions: background statement; cited from earlier work
[10] = clinical trials; cited from earlier work
[11] = amphetamine 1.5 mg/kg i.p., mice, NE = no effect to dose shown
[12] = mice, 30 minutes after injection, NE = no effect to dose shown
[13] = mice, 30 minutes after injection, NE = no effect to dose shown, read-out: Catalepsy (TD50)
[14] = phencyclidine 3 mg/kg, mice, NE = no effect to dose shown

T1 sequence (P61169 whole entry): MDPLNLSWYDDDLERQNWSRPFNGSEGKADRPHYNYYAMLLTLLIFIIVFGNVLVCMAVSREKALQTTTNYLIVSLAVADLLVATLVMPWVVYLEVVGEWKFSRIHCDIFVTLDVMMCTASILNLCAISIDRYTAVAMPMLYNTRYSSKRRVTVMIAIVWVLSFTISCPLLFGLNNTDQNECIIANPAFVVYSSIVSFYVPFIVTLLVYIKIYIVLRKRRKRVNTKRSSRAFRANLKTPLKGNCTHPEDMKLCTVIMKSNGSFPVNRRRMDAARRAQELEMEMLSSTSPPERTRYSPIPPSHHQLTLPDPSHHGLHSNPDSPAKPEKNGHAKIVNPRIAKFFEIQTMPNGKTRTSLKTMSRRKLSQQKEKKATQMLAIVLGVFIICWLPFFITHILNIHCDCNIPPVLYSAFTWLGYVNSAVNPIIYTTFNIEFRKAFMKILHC
T2 sequence (Q60492 whole entry): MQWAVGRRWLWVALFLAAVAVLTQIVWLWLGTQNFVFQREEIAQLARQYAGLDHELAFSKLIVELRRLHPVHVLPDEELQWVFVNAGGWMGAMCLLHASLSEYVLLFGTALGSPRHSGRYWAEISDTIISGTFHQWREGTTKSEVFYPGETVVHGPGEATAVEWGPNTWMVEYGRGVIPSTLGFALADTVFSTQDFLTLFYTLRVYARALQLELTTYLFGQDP

| Compound | Ki (D2 [1]) [nM] | IC50 (sigma sites [2]) [nM] | minimal effective dose [3, 11] [mg/kg] | minimal effective dose [3] [mg/kg] | IC50 (sigma sites [7]) [nM] | further results |
| --- | --- | --- | --- | --- | --- | --- |
| OC(CCCN1CCN(c2ncc(F)cn2)CC1)c1ccc(F)cc1 (stereo not drawn) [BMY14802, reference compound] | 3000 | 237 | 15 | – | – | – |
| CN1CCN(C2=Nc3cc(Cl)ccc3Nc3ccccc32)CC1 [Clozapine, reference compound] | – | – | 1 | – | – | extrapyramidal side effects ([4]; background statement): relatively free of extrapyramidal side effects; agranulocytosis ([4]; chronic administration): produces agranulocytosis upon chronic administration; Catalepsy (TD50) [5, 12]: NE (4) |
| CN(C)CCCCCCOc1ccc2oc(-c3ccccc3)cc(=O)c2c1 [Example 4, 6-[6-Dimethylamino)hexoxy1-2-phenyl-4H-1-benzopyran-4-one hydrochloride] | 5550 | 432 | – | 30 | 335 | TD50 at 0.5 h [5, 13]: 38 mg/kg; Induced Locomotion PCP (minimally effective dose, MED) [6, 14]: NE (30) |
| O=c1cc(-c2ccccc2)oc2ccc(OCCCCCCN3CCC(O)CC3)cc12 [Example 6, 6-6(4-hydroxypiperidinyl)hexoxy]-2-phenyl-4H-1-benzopyran-4-one hydrochloride] | 3630 | 100 | 5 | – | 124 | TD50 at 0.5 h [5]: 61 mg/kg; minimal effective dose [6, 14]: 15 mg/kg |
| O=c1cc(C2CCCCC2)oc2ccc(OCCCCCCN3CCC(O)CC3)cc12 [Example 26, 2-Cyclohexyl-6-[6-4-hydroxypiperidinyl)hexoxy]-4H-1-benzopyran-4-one hydrochloride] | 25000 | 88 | 20 | – | 46 | TD50 at 0.5 h [5]: 50 mg/kg |
| O=c1cc(-c2ccccc2)oc2ccc(OCCCCCCN3CCCCC3)cc12 [Example 28, 2-Phenyl-6-(6-piperidinylhexoxy)-4H-1-benzopyran-4-one hydrochloride] | 4440 | – | 20 | – | 54 | TD50 at 0.5 h [5, 13]: < 30 mg/kg; minimal effective dose [6, 14]: 30 mg/kg |
| O=c1cc(-c2ccccc2)oc2ccc(OCCCCCCN3CCOCC3)cc12 [Example 29, 6-(6-Morpholinylhexoxy)-2-phenyl-4H-1-benzopyran-4-one hydrochloride] | 18700 | – | – | 10 | – | TD50 at 0.5 h [5, 13]: 38 mg/kg |
| O=c1cc(C2CCCCC2)oc2ccc(OCCCCCCN3CCCCC3)cc12 [Example 34, 2-Cyclohexyl-6-(piperidinylhexoxy)-4H-1-benzopyran-4-one hydrochloride] | – | – | 10 | – | 32 | TD50 at 0.5 h [5]: 30 mg/kg |
| O=c1cc(-c2ccccc2)oc2cc(OCCCCCCN3CCC(O)CC3)ccc12 [Example 37, 7-[6-(4-Hydroxypiperidinyl)hexoxy]-2-phenyl-4H-1-benzopyran-4-one] | – | – | – | 30 | 70 | – |
| Cc1c(-c2ccccc2)oc2ccc(OCCCCCCN3CCC(O)CC3)cc2c1=O [Example 39, 6-[6-(4-Hydroxypiperidinyl)hexoxy]-3-methyl-2-phenyl-4H-1-benzopyran-4-one hydrochloride] | – | – | 25 | – | – | Catalepsy (TD50) [5, 12]: NE (250) |
| O=c1cc(-c2ccccc2Cl)oc2ccc(OCCCCCCN3CCC(O)CC3)cc12 [Example 49, 2-(2-Chlorophenyl)-6-(6-(4-hydroxypiperidinyl)hexoxy)-4H-1-benzopyran-4-onehydrochloride] | 4050 | 47 | – | 30 | 29 | – |
| O=C(CCCN1CCC(O)(c2ccc(Cl)cc2)CC1)c1ccc(F)cc1 [Haloperidol, reference compound] | – | – | – | 0.075 | – | TD50 at 0.5 h [5, 13]: 0.14 mg/kg; displacement of [3H]DTG and [3H](+)-3-PPP from sigma sites (sigma binding sites): displace [^3 H]DTG and [^3 H](+)-3-PPP from sigma sites; reversal of stimulant and psychotomimetic effects [8]: antagonize the stimulant/psychotomimetic effects of the dopamine agonist, amphetamine, and presumed sigma agonists such as PCP; also recorded: reverses the stimulant and psychotomimetic effects of SK&F 10047 and PCP; minimal effective dose [6]: 0.15 mg/kg |
| c1ccc(C2(N3CCCCC3)CCCCC2)cc1 [PCP, phencyclidine] | – | – | – | – | – | displacement of [3H]DTG and [3H](+)-3-PPP from sigma sites (sigma binding sites): displace [^3 H]DTG and [^3 H](+)-3-PPP from sigma sites |
| CCN1CCC[C@H]1CNC(=O)c1c(OC)ccc(Br)c1OC [Remoxipride] | – | – | – | – | – | D2 blocking potency (D2 [9]): significant D2 blocking potency |
| C[C@@H]1CN(CCCn2c3ccccc3c3ccccc32)C[C@H](C)N1 [Rimcazole, reference compound] | 22500 | 1620 | – | 20 | – | effectiveness in treating schizophrenia [10]: some effectiveness in treating schizophrenia; seizures [10]: induce seizures; potency at sigma sites (sigma binding sites): only moderately potent at sigma sites; minimal effective dose [6]: > 20 mg/kg |
